Results reported in ChEMBL document CHEMBL5376005, “Gut Metabolite Indoxyl Sulfate Has Selective Deleterious and Anticancer Effect on Colon Cancer Cells” (J Med Chem, 2023).
Structures can show the parent of a compound that is named as a salt. The source made the active and inactive calls. The calls are words filed in the database; no cut-off is given here.

How the values were obtained:
[1] = test system: HT-29; experiment: Cytotoxicity against human HT-29 cells assessed as cell viability at 10 mM measured after 72 hrs by CellTiter-Glo luminescent cell viability assay (reference value: 100%); type: functional; details: HT-29, 72 h, read-out: Activity
[2] = test system: HT-29; experiment: Cytotoxicity against human HT-29 cells assessed as reduction in colony formation pretreated for 48 hrs and further incubated for 10 days with media replacement for every alternate day; type: functional, cell-based; details: dose 1.25-10 mM
[3] = test system: HT-29; experiment: Induction of morphological changes in human HT-29 cells assessed as reduction in cell number at 1.25 to 10 mM incubated for 24 to 72 hrs by bright field microscopy analysis; type: functional, cell-based; details: dose 1.25-10 mM, time 24-72 hrs
[4] = test system: HCT-116; experiment: Induction of cell cycle arrest in human HCT-116 cells assessed as increase in proportion of cells at G2/M phase at 5 mM incubated for 48 hrs by RNase A/Triton X-100/PI staining based flow cytometry analysis relative to control; type: functional
[5] = test system: HT-29; experiment: Induction of morphological changes in human HT-29 cells assessed as appearance of rounded morphology at 1.25 to 10 mM incubated for 24 to 72 hrs by bright field microscopy analysis; type: functional, cell-based; details: dose 1.25-10 mM, time 24-72 hrs
[6] = test system: HT-29; experiment: Cytotoxicity against human HT-29 cells assessed as reduction in cell viability measured after 48 to 72 hrs by CellTiter-Glo luminescent cell viability assay; type: functional, cell-based; details: dose 0.01-10 mM, time 48-72 hrs
[7] = test system: HCT-116; experiment: Induction of morphological changes in human HCT-116 cells assessed as detachment from substrate at 1.25 to 10 mM incubated for 24 to 72 hrs by bright field microscopy analysis; type: functional, cell-based; details: dose 1.25-10 mM, time 24-72 hrs
[8] = test system: HT-29; experiment: Induction of cell cycle arrest in human HT-29 cells assessed as increase in proportion of cells at G2/M phase at 10 mM incubated for 48 hrs by RNase A/Triton X-100/PI staining based flow cytometry analysis relative to control; type: functional
[9] = test system: HCT-116; experiment: Induction of cell cycle arrest in human HCT-116 cells assessed as increase in proportion of cells at G2/M phase incubated for 48 hrs by RNase A/Triton X-100/PI staining based flow cytometry analysis; type: functional; details: dose 1.25-10 mM
[10] = test system: Cell membrane; experiment: Induction of membrane integrity loss in human HT-29 cells assessed as increase in LDH release in supernatant incubated for 48 hrs by absorbance based assay; type: subcellular; details: dose 1.25-10 mM
[11] = Toxicity in wild type BALB/c mouse assessed as change in intestinal length at 100 mM, ip measured after 12 weeks; type: organism-based, Intestine; details: in vivo, 2016 h, 100000 µM
[12] = Toxicity in wild type BALB/c mouse assessed as histological change in colon at 100 mM, ip measured after 12 weeks by H and E staining based light microscopic analysis; type: organism-based; details: in vivo, 2016 h, 100000 µM
[13] = test system: HCT-116; experiment: Cytotoxicity against human HCT-116 cells assessed as reduction in cell viability at 0.01 to 10 mM by CellTiter-Glo luminescent cell viability assay; type: functional, cell-based; details: dose 0.01-10 mM, time 48-72 hrs, TDE = time-dependent effect
[14] = Toxicity in wild type BALB/c mouse assessed as inflammatory symptoms by measuring change in TNFalpha level at 100 mM, REC measured for 0 to 3 months by ELISA; details: in vivo, other, 100000 µM, time 0-3 months
[15] = test system: HCT-116; experiment: Cytotoxicity against human HCT-116 cells assessed as cell viability at 10 mM measured after 24 hrs by MTT assay (reference value: 100%); type: functional; details: HCT-116, 24 h, read-out: Activity
[16] = Toxicity in wild type BALB/c mouse assessed as inflammatory symptoms by measuring change in IL-17 level at 100 mM, ip measured for 0 to 3 months by ELISA; type: organism-based; details: in vivo, 100000 µM, time 0-3 months
[17] = test system: HT-29; experiment: Induction of morphological changes in human HT-29 cells assessed as formation of intracellular vesicles at 1.25 to 10 mM incubated for 24 to 72 hrs by bright field microscopy analysis; type: functional, cell-based; details: dose 1.25-10 mM, time 24-72 hrs
[18] = test system: HT-29; experiment: Cytotoxicity against human HT-29 cells assessed as cell viability at 10 mM measured after 72 hrs by MTT assay (reference value: 100%); type: functional; details: HT-29, 72 h, read-out: Activity
[19] = test system: HCT-116; experiment: Induction of apoptosis in human HCT-116 cells assessed as increase in apoptotic cells at 10 mM incubated for 48 hrs by annexin V-FITC/PI staining based flow cytometry analysis (reference value: 3%); type: functional
[20] = test system: HCT-116; experiment: Cytotoxicity against human HCT-116 cells assessed as cell viability at 10 mM measured after 72 hrs by CellTiter-Glo luminescent cell viability assay (reference value: 100%); type: functional; details: HCT-116, 72 h, read-out: Activity
[21] = Toxicity in wild type BALB/c mouse assessed as inflammatory symptoms by measuring change in IL-1beta level at 100 mM, REC measured for 0 to 3 months by ELISA; details: in vivo, other, 100000 µM, time 0-3 months
[22] = test system: Cell membrane; experiment: Induction of membrane integrity loss in human HCT-116 cells assessed as LDH release in supernatant at 5 mM incubated for 48 hrs by absorbance based assay relative to control; type: subcellular
[23] = test system: HCT-116; experiment: Induction of apoptosis in human HCT-116 cells assessed as increase in apoptotic cells at 5 mM incubated for 48 hrs by annexin V-FITC/PI staining based flow cytometry analysis (reference value: 3%); type: functional
[24] = test system: HT-29; experiment: Induction of apoptosis in human HT-29 cells assessed as increase in apoptotic cells at 5 mM incubated for 48 hrs by annexin V-FITC/PI staining based flow cytometry analysis (reference value: 3%); type: functional
[25] = Toxicity in wild type BALB/c mouse assessed as inflammatory symptoms by measuring change in IL-1beta level at 100 mM, ip measured for 0 to 3 months by ELISA; type: organism-based; details: in vivo, 100000 µM, time 0-3 months
[26] = Toxicity in wild type BALB/c mouse assessed as change in spleen length at 100 mM, REC measured after 12 weeks; details: in vivo, other, 2016 h, 100000 µM
[27] = test system: HCT-116; experiment: Induction of morphological changes in human HCT-116 cells assessed as appearance of rounded morphology at 1.25 to 10 mM incubated for 24 to 72 hrs by bright field microscopy analysis; type: functional, cell-based; details: dose 1.25-10 mM, time 24-72 hrs
[28] = test system: Cell membrane; experiment: Induction of membrane integrity loss in human HT-29 cells assessed as LDH release in supernatant at 5 mM incubated for 48 hrs by absorbance based assay relative to control; type: subcellular
[29] = test system: HT-29; experiment: Induction of apoptosis in human HT-29 cells assessed as increase in apoptotic cells at 10 mM incubated for 48 hrs by annexin V-FITC/PI staining based flow cytometry analysis (reference value: 3%); type: functional
[30] = test system: HT-29; experiment: Induction of ROS production in human HT-29 cells incubated for 48 hrs by DHE staining based analysis; type: functional, cell-based
[31] = test system: HT-29; experiment: Induction of morphological changes in human HT-29 cells assessed as detachment from substrate at 1.25 to 10 mM incubated for 24 to 72 hrs by bright field microscopy analysis; type: functional, cell-based; details: dose 1.25-10 mM, time 24-72 hrs
[32] = test system: HCT-116; experiment: Induction of morphological changes in human HCT-116 cells assessed as formation of intracellular vesicles at 1.25 to 10 mM incubated for 24 to 72 hrs by bright field microscopy analysis; type: functional, cell-based; details: dose 1.25-10 mM, time 24-72 hrs
[33] = test system: HT-29; experiment: Induction of morphological changes in human HT-29 cells assessed as loss of adhesion with free floating in medium at 10 mM incubated for 24 to 72 hrs by bright field microscopy analysis; type: functional, cell-based; details: time 24-72 hrs

In the case of `O=S(=O)(O)Oc1c[nH]c2ccccc12` [INDOXYL SULFATE], the viability at 10000 µM [1] is reported as 19%, the Activity [2] is reported as “Dose-Dependent Effect” and the Activity [3] is reported as “Active”. The Activity [4] was 18.1%, the Activity [5] was “Active” and the Activity [6] was “Dose-Dependent Effect”. For the same molecule, the Activity [7] was “Active”, the Activity [8] was 17.3% and the Activity [9] was “Dose-Dependent Effect”. For the same molecule, the Activity [10] was “Dose-Dependent Effect”, the Activity [11] was “Non-Toxic” and the Activity [12] was “Non-Toxic”. For the same molecule, the Activity [13] was “Tde”, the Activity [14] was “Non-Toxic” and the viability at 10000 µM [15] was 30%. The Activity [16] was “Non-Toxic”, the Activity [17] was “Active” and the viability at 10000 µM [18] was 17%. The Activity [19] was 13%, the viability at 10000 µM [20] was 3% and the Activity [21] was “Non-Toxic”. It also gave an Activity [22] of 80%, an Activity [23] of 9% and an Activity [24] of 8%. The Activity [25] was “Non-Toxic”, the Activity [26] was “Non-Toxic” and the Activity [27] was “Active”. For the same molecule, the Activity [28] was 82%, the Activity [29] was 12% and the Activity [30] was “inactive”. The Activity [31] was “Active”, the Activity [32] was “Active” and the Activity [33] was “Active”.
